In article PMC3781598 (Pharmaceutical research, 2013):
Several values for one entry are separate records, joined by “and”; a condition that tells them apart may be missing. Equal entries are not always repeated. Entries after “also recorded” stand apart in the source; their conditions may differ. Where two headings read alike, the source gives them in different places.

How the values were obtained:
human CYP2A13 [1] = biological target: T1, human CYP2A13 (Homo sapiens, UniProt Q16696); assay: Coumarin metabolism assay; conditions: for α (mixed inhibition) 2A13: mixed model inhibition
T1 sequence (Q16696 with tags, fused parts or gaps limits assumed): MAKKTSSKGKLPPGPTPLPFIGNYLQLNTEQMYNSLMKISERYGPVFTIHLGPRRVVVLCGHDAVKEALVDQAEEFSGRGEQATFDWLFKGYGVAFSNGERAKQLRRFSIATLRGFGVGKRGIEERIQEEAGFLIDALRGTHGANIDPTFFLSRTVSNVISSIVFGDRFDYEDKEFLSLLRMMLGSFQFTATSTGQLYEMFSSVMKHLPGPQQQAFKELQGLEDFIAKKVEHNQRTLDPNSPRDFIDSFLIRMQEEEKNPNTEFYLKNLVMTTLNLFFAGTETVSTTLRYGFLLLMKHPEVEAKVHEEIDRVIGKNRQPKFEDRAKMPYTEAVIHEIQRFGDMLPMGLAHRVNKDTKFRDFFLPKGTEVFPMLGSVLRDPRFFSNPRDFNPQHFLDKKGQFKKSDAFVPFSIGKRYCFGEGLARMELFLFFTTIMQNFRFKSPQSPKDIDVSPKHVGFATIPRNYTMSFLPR

human CYP2A13 [2] = biological target: T2, human CYP2A13 (Homo sapiens, UniProt Q16696); assay: Spectral ligand binding assay; conditions: for Kd: Kd 2A13, spectral titration, ≥ = minimal Kd value; for Spectral shift type 2A13: UV/Vis difference spectra
T2 sequence (Q16696 25-494): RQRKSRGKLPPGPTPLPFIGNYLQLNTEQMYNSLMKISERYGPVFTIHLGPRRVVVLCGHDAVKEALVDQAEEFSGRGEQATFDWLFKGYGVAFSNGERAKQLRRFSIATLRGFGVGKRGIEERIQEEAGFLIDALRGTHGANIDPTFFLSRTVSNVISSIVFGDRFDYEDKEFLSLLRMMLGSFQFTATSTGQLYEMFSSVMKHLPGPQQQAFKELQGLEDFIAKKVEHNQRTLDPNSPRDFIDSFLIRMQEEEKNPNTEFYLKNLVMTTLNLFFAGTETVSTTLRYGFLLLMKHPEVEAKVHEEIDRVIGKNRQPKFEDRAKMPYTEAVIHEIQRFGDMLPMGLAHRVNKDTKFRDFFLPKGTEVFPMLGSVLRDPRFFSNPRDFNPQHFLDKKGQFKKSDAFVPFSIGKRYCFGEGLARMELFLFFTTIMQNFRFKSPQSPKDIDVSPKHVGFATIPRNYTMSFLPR

human CYP2A6 [3] = biological target: T3, human CYP2A6 (Homo sapiens, UniProt P11509); assay: Coumarin metabolism assay; conditions: for α (mixed inhibition) 2A6: mixed model inhibition
T3 sequence (P11509 with tags, fused parts or gaps limits assumed): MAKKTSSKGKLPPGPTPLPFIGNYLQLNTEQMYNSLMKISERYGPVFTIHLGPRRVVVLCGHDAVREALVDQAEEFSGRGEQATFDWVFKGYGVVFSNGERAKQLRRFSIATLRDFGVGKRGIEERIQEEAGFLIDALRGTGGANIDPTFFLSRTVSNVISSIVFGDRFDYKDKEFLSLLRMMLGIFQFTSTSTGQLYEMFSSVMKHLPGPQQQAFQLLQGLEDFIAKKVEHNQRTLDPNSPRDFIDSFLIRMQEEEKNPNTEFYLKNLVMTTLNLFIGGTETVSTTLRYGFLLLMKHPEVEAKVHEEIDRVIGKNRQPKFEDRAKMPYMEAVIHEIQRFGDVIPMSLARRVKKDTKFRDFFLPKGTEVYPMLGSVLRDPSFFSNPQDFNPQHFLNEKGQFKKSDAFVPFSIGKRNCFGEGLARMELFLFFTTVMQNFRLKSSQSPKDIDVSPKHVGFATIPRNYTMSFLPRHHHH

human CYP2A6 [4] = biological target: T3, human CYP2A6; assay: Spectral ligand binding assay; conditions: for Kd 2A6 / Kd: ≥ = minimal Kd value; for Spectral shift type 2A6: UV/Vis difference spectra
CYP2A6 / CYP2A13 [5] = assay: Coumarin metabolism assay; conditions: human
CYP2A6 / CYP2A13 [6] = assay: Spectral ligand binding assay; parameters: species or system human; conditions: human
human CYP2A13 [7] = assay: Coumarin metabolism assay; conditions: ratio of the CYP2A6 value to the CYP2A13 value
human CYP2A13 [8] = assay: Spectral ligand binding assay; conditions: ratio of the CYP2A6 value to the CYP2A13 value
[9] = pH 7.4, probe coumarin (7-hydroxylation), Selectivity Ki (2A6)/ Ki (2A13), ratio of the CYP2A6 value to the CYP2A13 value
[10] = Selectivity Kd (2A6)/ Kd (2A13), ratio of the CYP2A6 value to the CYP2A13 value
[11] = read-out: Ki 2A13, coumarin substrate
[12] = read-out: Ki 2A6, coumarin substrate
[13] = read-out: Kd 2A6, spectral titration

| Compound | Ki (human CYP2A13 [1]) [µM] | Kd (human CYP2A13 [2]) | Spectral shift type 2A13 (human CYP2A13 [2]) | Ki (human CYP2A6 [3]) [µM] | Kd 2A6 (human CYP2A6 [4]; spectral titration) | selectivity ratio at 10 min (CYP2A6 / CYP2A13 [5]; [9]) | selectivity ratio (CYP2A6 / CYP2A13 [6]; [10]) | Kd (human CYP2A6 [4]; Kd 2A6, spectral titration) [µM] | Spectral shift type 2A6 (human CYP2A6 [4]) | Ki (human CYP2A13 [1]; [11]) [µM] | Mode of inhibition 2A6 (human CYP2A6 [3]; coumarin substrate) | α (mixed inhibition) 2A6 (human CYP2A6 [3]; coumarin substrate) | Ki (human CYP2A6 [3]; [12]) [µM] | Kd (human CYP2A6 [4]; [13]) [µM] | Mode of inhibition 2A13 (human CYP2A13 [1]; coumarin substrate) | α (mixed inhibition) 2A13 (human CYP2A13 [1]; coumarin substrate) | Selectivity Ki (2A6)/ Ki (2A13) (human CYP2A13 [7]) | selectivity ratio at 10 min (CYP2A6 / CYP2A13 [5]; pH 7.4) | selectivity ratio (CYP2A6 / CYP2A13 [6]) | Selectivity Kd (2A6)/ Kd (2A13) (human CYP2A13 [8]) |
| --- | --- | --- | --- | --- | --- | --- | --- | --- | --- | --- | --- | --- | --- | --- | --- | --- | --- | --- | --- | --- |
| CN1CCN(Cc2c(Cl)cccc2Cl)CC1 [Compound 22, 1-(2,6-dichlorobenzyl)-4-methylpiperazine] | ≥ 1000 | ≥ 362 µM | I | ≥ 1000 | weak or no spectral shifts; also recorded: No Spectral Shift | – | – | – | – | – | – | – | – | – | – | – | – | – | – | – |
| Clc1ccc(CN2CCOCC2)cc1 [Compound 11, 4-(4-chlorobenzyl)morpholine] | 458 | 168 µM and 167 µM | I | 448 | – | 1 | ≥ 1.5 | ≥ 245 | I | – | – | – | – | – | – | – | – | – | – | – |
| Benzylmorpholine [Compound 1] | – | – | – | – | – | – | – | – | I [drawing 2] II | 477 | mixed inhibition | 3.4 | 675 | ≥ 300 | – | – | – | – | – | – |
| c1ccc2c(CN3CCOCC3)cccc2c1 [Compound 15, 4-(naphthalen-1-ylmethyl)morpholine] | 219 ± 18.7 | 41.8 µM and 121 µM | I | 500 | Weak Spectral Shift | 2.3 | – | – | – | – | mixed inhibition | 3.1 | – | – | – | – | – | – | – | – |
| c1csc(CN2CCOCC2)c1 [Compound 19, 4-(thiophen-2-ylmethyl)morpholine] | 131 | 30.8 µM | I | 270 | – | 2.1 | ≥ 15.1 | ≥ 464 | I | – | – | – | – | – | – | – | – | – | – | – |
| Clc1cccc(Cl)c1Cn1ccnc1 [Compound 17, 1-(2,6-dichlorobenzyl)-1H-imidazole] | 2.1 | < 0.1 µM | – | 0.9 | – | 0.4 | ≥ 9 | 0.9 | – | – | purely competitive inhibitors | – | – | – | mixed inhibition; also recorded: mixed inhibitors | 2.0 | – | – | – | – |
| Clc1cccc(CN2CCOCC2)c1 [Compound 10, 4-(3-chlorobenzyl)morpholine] | 260 | 69.1 ± 30.2 µM | I | 352 | – | 1.4 | ≥ 5.8 | ≥ 400 | I [drawing 12] II | – | – | – | – | – | – | – | – | – | – | – |
| CC1CN(Cc2cccc(Cl)c2Cl)CC(C)O1 (stereo not shown) [Compound 14, 4-(2,3-dichlorobenzyl)-2,6-dimethylmorpholine] | 646 | 37 µM | I | ≥ 1000 | – | ≥ 2.6 | ≥ 12.5 | ≥ 462 | I | – | – | – | – | – | mixed inhibition | 19.6 | – | – | – | – |
| Clc1ccc(CN2CCOCC2)c(Cl)c1 [Compound 13, 4-(2,4-dichlorobenzyl)morpholine] | 113 ± 14 | 34.2 µM | I | 995 | – | ~9 | ≥ 5.8 | ≥ 198 | I | – | – | – | – | – | – | – | 8.9 | – | – | – |
| CCc1ccccc1CN1CCOCC1 [Compound 6, 4-(2-ethylbenzyl)morpholine] | 16.9 | 4.5 µM | I | 818 | – | – | – | ≥ 575 | I | – | mixed inhibition | 13.3 | – | – | – | – | – | 48.4 | ≥ 128 | – |
| Clc1ccccc1Cn1ccnc1 [Compound 16, 1-(2-chlorobenzyl)-1H-imidazole] | 2.8 | < 0.1 µM | – | 2.9 | – | 1 | ≥ 1 | 0.1 | – | – | purely competitive inhibitors | – | – | – | mixed inhibition; also recorded: mixed inhibitors | 3.9 | – | – | – | – |
| Fc1ccccc1CN1CCOCC1 [Compound 2, 4-(2-fluorobenzyl)morpholine] | 379 | – | I | ≥ 1000 | no spectral shift; also recorded: No ^** Spectral Shift | ≥ 2.6 | – | – | – | – | – | – | – | – | – | – | – | – | – | – |
| Cc1ccccc1CN1CCOCC1 [Compound 5, 4-(2-methylbenzyl)morpholine] | 66.9 | 18.5 µM | I | ≥ 1000 | No ^** Spectral Shift | ≥ 14.9 | – | – | – | – | – | – | – | – | – | – | – | – | – | – |
| CN1CCN(Cc2ccccc2Cl)CC1 [Compound 21, 1-(2-chlorobenzyl)-4-methylpiperazine] | ≥ 1000 | 306 µM | I | ≥ 1000 | weak or no spectral shifts; also recorded: Weak Spectral Shift | – | – | – | – | – | – | – | – | – | – | – | – | – | – | – |
| CC(c1ccccc1Cl)N1CCOCC1 (stereo not shown) [Compound 23, 4-(1-(2-chlorophenyl)ethyl)morpholine] | 15.9 | 7.6 ± 2.8 µM | I | 98.5 | – | 6.2 | ≥ 70.8 | ≥ 538 | I | – | – | – | – | – | – | – | – | – | – | – |
| Clc1cccc(Cl)c1CN1CCOCC1 [Compound 8, 4-(2,6-dichlorobenzyl)morpholine] | 18.1 | 1.3 µM | I | 237 | – | 13.7 | > 400 | ≥ 522 | I | – | – | – | – | – | – | – | – | – | – | – |
| Cc1cccc(Cl)c1CN1CCOCC1 [Compound 9, 4-(2-chloro-6-methylbenzyl)morpholine] | 19.7 ± 1.2 | 1.1 µM | I | 296 | – | 15 | > 400 | 515 | I | – | – | – | – | – | – | – | – | – | – | 468 |
| Clc1ccccc1CCN1CCOCC1 [Compound 24, 4-(2-chlorophenethyl)morpholine] | – | – | – | – | – | – | – | – | – | 604 | – | – | ≥ 1000 | ≥ 604 | – | – | – | – | – | – |
| Brc1ccccc1CN1CCOCC1 [Compound 4, 4-(2-bromobenzyl)morpholine] | 17.6 ± 3.1 | 6.3 µM | I | ≥ 1000 | No ^** Spectral Shift | – | – | – | – | – | – | – | – | – | – | – | – | ≥ 56.8 | – | – |
| Clc1ccsc1CN1CCOCC1 [Compound 20, 4-((3-chlorothiophen-2-yl)methyl)morpholine] | 54.7 | 10.7 µM | I | 433 | – | 7.9 | ≥ 22.3 | ≥ 239 | I | – | – | – | – | – | – | – | – | – | – | – |
| Clc1cccc(CN2CCOCC2)c1Cl [Compound 12, 4-(2,3-dichlorobenzyl)morpholine] | 88.9 | 30.8 ± 8.1 µM | I | 836 | – | ~9 | ≥ 9.9 | ≥ 305 | I | – | – | – | – | – | – | – | 9.4 | – | – | – |
